Laboratory results from patent US9708314B2, “Heterocyclic amide compound” (NISSAN CHEMICAL INDUSTRIES, LTD., priority 2013, dated 2017).

How the values were obtained:
Assay type in all cases: in vivo
[1] = test system: directly sowed Oryza sativa; assay: Test Example 3: effect on crop by application to foliage (Wagner pot, water depth 0.1-0.5 cm); conditions: Nineteenth Table; application to foliage; application herbicide amount 320 g/ha
Procedure, shortened: (§1)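 Greenhouse pot test, 25–30 °C, alluvial soil. Sown seedlings grown 14 days then sprayed on leaves and stems with emulsion diluted to target g/ha. Rating at 3 weeks, 0–5 scale (0 ≤5%, 5 ≥90%).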

[2] = test system: Scirpus juncoides; assay: Test Example 1: herbicidal activity, application before weed generation in submerged conditions; conditions: Application herbicide amount 320 g/ha; Seventeenth Table
Procedure, shortened: (§2)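 Water-diluted emulsion formulation is applied onto flood water (4 cm deep) covering alluvial soil on the day weed seeds are sown, after transplanting 2.5 leaf stage rice. Rates are expressed per hectare. Injury or control is graded 0–5 three weeks later.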

[3] = test system: Monochoria vaginalis; assay: as above; conditions: Application herbicide amount 320 g/ha; Seventeenth Table
Procedure, shortened: as §2

[4] = test system: Echinochloa oryzacola Vasing.; assay: as above; conditions: Application herbicide amount 320 g/ha; Seventeenth Table
Procedure, shortened: as §2

[5] = test system: transplanted Oryza sativa; assay: Test Example 1: effect on crop, application before weed generation in submerged conditions; conditions: Application herbicide amount 320 g/ha; Seventeenth Table
Procedure, shortened: as §2

[6] = test system: Setaria viridis; assay: Test Example 4: herbicidal effect by application to foliage (diluvial soil, plastic box); conditions: for G (Setaria viridis) herbicidal effect grade: foliage application; for G: herbicidal effect on Setaria viridis: application to foliage, application herbicide amount 320 g/ha
Procedure, shortened: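 Greenhouse plants (25° C. to 30° C., 14 d, diluvial soil) receive a foliar spray of water-diluted emulsifiable formulation at defined g/ha. Grading after 3 weeks uses a six-step herbicidal-ratio scale, with 4 covering 70% to <90% and 1 covering 5% to <20%.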

[7] = test system: Leptochloa chinensis; assay: Test Example 3: herbicidal effect by application to foliage (Wagner pot, water depth 0.1-0.5 cm); conditions: Nineteenth Table; application to foliage; application herbicide amount 320 g/ha
Procedure, shortened: as §1

[8] = test system: Cyperus difformis; assay: as above; conditions: Nineteenth Table; application to foliage; application herbicide amount 320 g/ha
Procedure, shortened: as §1

[9] = test system: Echinochloa crus-galli var. crus-galli; assay: as above; conditions: Nineteenth Table; application to foliage; application herbicide amount 320 g/ha
Procedure, shortened: as §1

| SMILES | b (effect on crop grade) [1] | B: Scirpus juncoides (herbicidal effect grade) [2] | C: Monochoria vaginalis (herbicidal effect grade) [3] | A: Echinochloa oryzicola Vasing. (herbicidal effect grade) [4] | a: transplanted Oryza sativa (effect on crop grade) [5] | G (Setaria viridis) herbicidal effect grade ([6]; 320 g/ha) | D (herbicidal effect grade) [7] | E (herbicidal effect grade) [8] | H (herbicidal effect grade) [9] | G (Setaria viridis) herbicidal effect grade ([6]; Application herbicide amount 320 g/ha) | G: herbicidal effect on Setaria viridis [6] |
| --- | --- | --- | --- | --- | --- | --- | --- | --- | --- | --- | --- |
| CC[S+]([O-])c1nnc2c(C(=O)Nc3nnnn3C)ccc(C(F)(F)F)n12 (stereo not shown) [2-031] | 5 (Herbicidal ratio of 90% or more (almost completely withered)) | 5 (Herbicidal ratio of 90% or more (almost completely withered)) | 5 (Herbicidal ratio of 90% or more (almost completely withered)) | 5 (Herbicidal ratio of 90% or more (almost completely withered)) | 5 (Herbicidal ratio of 90% or more (almost completely withered)) | 5 (Herbicidal ratio of 90% or more (almost completely withered)) | 5 (Herbicidal ratio of 90% or more (almost completely withered)) | 5 (Herbicidal ratio of 90% or more (almost completely withered)) | 5 (Herbicidal ratio of 90% or more (almost completely withered)) |  |  |
| Cc1nnc(NC(=O)c2ccc(C(F)(F)F)n3c(N4CC[S+]([O-])CC4)nnc23)o1 [1-119] | 3 (Herbicidal ratio of 40% or more and less than 70%) | 1 (Herbicidal ratio of 5% or more and less than 20%) | 0 (Herbicidal ratio of 5% or less (almost no effect)) | 2 (Herbicidal ratio of 20% or more and less than 40%) | 3 (Herbicidal ratio of 40% or more and less than 70%) |  | 5 (Herbicidal ratio of 90% or more (almost completely withered)) | 2 (Herbicidal ratio of 20% or more and less than 40%) | 5 (Herbicidal ratio of 90% or more (almost completely withered)) | 4 (Herbicidal ratio of 70% or more and less than 90%) |  |
| COc1ccc(N(C)c2nnc3c(C(=O)Nc4nnc(C)o4)ccc(C(F)(F)F)n23)cc1 [1-165] | 0 (Herbicidal ratio of 5% or less (almost no effect)) | 3 (Herbicidal ratio of 40% or more and less than 70%) | 4 (Herbicidal ratio of 70% or more and less than 90%) | 4 (Herbicidal ratio of 70% or more and less than 90%) | 0 (Herbicidal ratio of 5% or less (almost no effect)) |  | 4 (Herbicidal ratio of 70% or more and less than 90%) |  | 5 (Herbicidal ratio of 90% or more (almost completely withered)) |  | 1 (Herbicidal ratio of 5% or more and less than 20%) |
| COC1CCC(c2nnc3c(C(=O)Nc4nnc(C)o4)ccc(C(F)(F)F)n23)CC1 (stereo not shown) [1-169] | 1 (Herbicidal ratio of 5% or more and less than 20%) | 4 (Herbicidal ratio of 70% or more and less than 90%) | 4 (Herbicidal ratio of 70% or more and less than 90%) | 5 (Herbicidal ratio of 90% or more (almost completely withered)) | 0 (Herbicidal ratio of 5% or less (almost no effect)) |  | 4 (Herbicidal ratio of 70% or more and less than 90%) |  | 5 (Herbicidal ratio of 90% or more (almost completely withered)) |  | 3 (Herbicidal ratio of 40% or more and less than 70%) |
